According to patent publication US20110312973A1, “SOLID COMPOSITIONS” (priority 2010, published 2011):

Assay: Aqueous solubility
Type: physicochemical

aqueous solubility: low aqueous solubility
SMILES: Cc1cnc(C(=O)N[C@H]2CCCCC/C=C\[C@@H]3C[C@@]3(C(=O)NS(=O)(=O)C3CC3)NC(=O)[C@@H]3C[C@@H](Oc4nc5ccccc5c5ccccc45)CN3C2=O)cn1 [Compound I, (2R,6S,13aS,14aR,16aS,Z)-N-(cyclopropylsulfonyl)-6-(5-methylpyrazine-2-carboxamido)-5,16-dioxo-2-(phenanthridin-6-yloxy)-1,2,3,5,6,7,8,9,10,11,13a,14,14a,15,16,16a-hexadecahydrocyclopropa[e]pyrrolo[1,2-a][1,4]diazacyclopentadecine-14a-carboxamide]
